Among the data in ChEMBL document CHEMBL1128983, “Synthesis and biological activity of novel sialyl-lewisX conjugates” (Bioorg Med Chem Lett, 1996) are IC50 values, retold here.

In the assay the target is T1, E-selectin (Homo sapiens, UniProt P16581).
T1 sequence (P16581 whole entry): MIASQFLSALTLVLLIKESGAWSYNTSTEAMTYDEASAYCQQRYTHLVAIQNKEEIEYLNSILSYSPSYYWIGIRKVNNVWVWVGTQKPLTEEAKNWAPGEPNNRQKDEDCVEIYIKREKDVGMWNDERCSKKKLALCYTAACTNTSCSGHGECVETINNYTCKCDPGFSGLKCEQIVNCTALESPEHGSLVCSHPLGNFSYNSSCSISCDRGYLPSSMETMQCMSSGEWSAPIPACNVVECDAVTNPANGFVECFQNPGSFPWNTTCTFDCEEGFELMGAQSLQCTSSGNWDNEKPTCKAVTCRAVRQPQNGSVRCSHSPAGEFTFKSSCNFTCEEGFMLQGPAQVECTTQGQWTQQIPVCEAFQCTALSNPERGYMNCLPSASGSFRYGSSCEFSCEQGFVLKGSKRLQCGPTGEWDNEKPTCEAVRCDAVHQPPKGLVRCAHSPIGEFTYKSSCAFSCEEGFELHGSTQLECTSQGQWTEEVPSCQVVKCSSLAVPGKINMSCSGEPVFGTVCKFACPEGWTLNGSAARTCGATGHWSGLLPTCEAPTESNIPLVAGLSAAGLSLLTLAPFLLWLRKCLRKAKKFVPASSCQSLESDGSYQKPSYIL
The assay can be described thus: Compound was tested for inhibition of HL60 cell adhesion to recombinant Selectin E IgG fusion protein obtained from transfected COS cells. The format is functional, cell-based, HL-60.

Where only a bound is given, the exact number is not on record here.

On to `CC(=O)N[C@@H]1[C@H](OCCCCCCNC(=O)[C@H]2CC[C@H](CN3C(=O)C=CC3=O)CC2)O[C@@H](CO)[C@@H](O[C@@H]2O[C@@H](CO)[C@H](O)[C@H](O[C@]3(C(=O)O)C[C@@H](O)[C@@H](NC(C)=O)[C@H]([C@H](O)[C@H](O)CO)O3)[C@@H]2O)[C@@H]1O[C@@H]1O[C@@H](C)[C@@H](O)[C@H](O)[C@@H]1O`, for which the IC50 is 280 µM.

In the case of `CC(=O)N[C@@H]1[C@H](OCCCCCC/N=C(S)/N=C2\C=CC(=C3c4ccc(O)cc4Oc4cc(O)ccc43)C(C(=O)O)=C2)O[C@@H](CO)[C@@H](O[C@@H]2O[C@@H](CO)[C@H](O)[C@H](O[C@]3(C(=O)O)C[C@@H](O)[C@@H](NC(C)=O)[C@H]([C@H](O)[C@H](O)CO)O3)[C@@H]2O)[C@@H]1O[C@@H]1O[C@@H](C)[C@@H](O)[C@H](O)[C@@H]1O`, the IC50 was 650 µM.

As for `CC(=O)N[C@@H]1[C@H](OCCCCCCNC(=O)CCCC[C@@H]2SC[C@@H]3NC(=O)N[C@@H]32)O[C@@H](CO)[C@@H](O[C@@H]2O[C@@H](CO)[C@H](O)[C@H](O[C@]3(C(=O)O)C[C@@H](O)[C@@H](NC(C)=O)[C@H]([C@H](O)[C@H](O)CO)O3)[C@@H]2O)[C@@H]1O[C@@H]1O[C@@H](C)[C@@H](O)[C@H](O)[C@@H]1O`, the IC50 was 590 µM.

Take `CC(=O)N[C@H]1[C@H]([C@H](O)[C@H](O)CO)O[C@@](O[C@@H]2[C@H](O)[C@H](O[C@H]3[C@H](O[C@@H]4O[C@@H](C)[C@@H](O)[C@H](O)[C@@H]4O)[C@H](NC(C)=O)[C@H](NC(=O)[C@H](C)NC(=O)[C@H](CC(=O)O)NC(=O)CNC(=O)[C@@H](N)CCCN=C(N)N)O[C@H]3CO)O[C@@H](CO)[C@@H]2O)(C(=O)O)C[C@H]1O`: the IC50 was greater than 1000 µM.

For the molecule `CC(=O)N[C@H]1[C@H]([C@H](O)[C@H](O)CO)O[C@@](O[C@@H]2[C@H](O)[C@H](O[C@H]3[C@H](O[C@@H]4O[C@@H](C)[C@@H](O)[C@H](O)[C@@H]4O)[C@H](NC(C)=O)[C@H](NC(=O)[C@H](C)NC(=O)[C@@H]4CCCN4C(=O)CNC(=O)CNC(=O)[C@@H]4CCCN4C(=O)CN)O[C@H]3CO)O[C@@H](CO)[C@@H]2O)(C(=O)O)C[C@H]1O`, the IC50 amounted to 5000 µM.

For `CC(=O)N[C@@H]1[C@H](OCCCCCCN)O[C@@H](CO)[C@@H](O[C@@H]2O[C@@H](CO)[C@H](O)[C@H](O[C@]3(C(=O)O)C[C@@H](O)[C@@H](NC(C)=O)[C@H]([C@H](O)[C@H](O)CO)O3)[C@@H]2O)[C@@H]1O[C@@H]1O[C@@H](C)[C@@H](O)[C@H](O)[C@@H]1O`, the IC50 amounted to 1000 µM.

On to `CC(=O)N[C@@H]1[C@H](OCCCCCCNC(=O)CCC(=O)O)O[C@@H](CO)[C@@H](O[C@@H]2O[C@@H](CO)[C@H](O)[C@H](O[C@]3(C(=O)O)C[C@@H](O)[C@@H](NC(C)=O)[C@H]([C@H](O)[C@H](O)CO)O3)[C@@H]2O)[C@@H]1O[C@@H]1O[C@@H](C)[C@@H](O)[C@H](O)[C@@H]1O`, for which the IC50 was determined as 1150 µM.

A word on the IC50: it is the concentration that gives 50% inhibition.
